# Data as given in paper PMC8999625, “Antiviral Effects of ABMA and DABMA against Influenza Virus In Vitro and In Vivo via Regulating the Endolysosomal Pathway and Autophagy” (International Journal of Molecular Sciences, 2022).
# Entries after “also recorded” stand apart in the source; their conditions may differ. Structures can show the parent of a compound that is named as a salt. Where two headings read alike, the source gives them in different places.
# How the values were obtained:
# [1] = system: Corynebacterium diphtheriae; parameters: method as in PMID 29138439; details: cited from earlier work
# Ebola virus = details: cited from earlier work
# HSV-2 = details: cited from earlier work
# A/NY/61/LV16A (H1N1) [2] = experiment: H1N1 NP mRNA by qRT-PCR in A549 cells treated with autophagy inhibitors; assay type: cell-based, influenza virus
# A/NY/61/LV16A (H1N1) [3] = experiment: CPE inhibition assay; assay type: cell-based
# A/17/HK/2014/8296 (H3N2) = experiment: CPE inhibition assay; assay type: cell-based
# [4] = system: A/Maonan/SWL1536/2019 (H1N1); experiment: CPE inhibition assay; assay type: cell-based
# B/Washington/02/2019 = experiment: CPE inhibition assay; assay type: cell-based
# [5] = system: influenza virus strains (H1N1, H3N2, influenza B virus); experiment: CPE inhibition assay, all influenza virus strains tested; assay type: cell-based; details: unidentified influenza virus; range over five strains, MDCK cells; read-out: EC50 values ranging, all influenza virus strains tested
# A/NY/61/LV16A (H1N1) [6] = experiment: H1N1 RNA replication by qRT-PCR in MDCK cells; assay type: cell-based, influenza virus
# A/NY/61/LV16A (H1N1) [7] = assay type: in vivo, BALB/c mice; details: for survival rate: 5 mg/kg i.p. once daily for 6 days, H1N1 i.n., 14 days; for H1N1 virus titers in the lungs compared to placebo / lung histopathology changes (H&E) / lung index compared to placebo / lung viral load compared to placebo: mouse, in vivo, ip
# A/NY/61/LV16A (H1N1) [8] = experiment: Viral nucleoprotein (NP) by Western blotting; assay type: cell-based, influenza virus
# A/NY/61/LV16A (H1N1) [9] = assay type: cell-based; details: 15 μM, A549 cells, MOI = 1, 16 hpi, vs virus control
# A/NY/61/LV16A (H1N1) [10] = experiment: Binding assay; assay type: cell-based, influenza virus
# A/NY/61/LV16A (H1N1) [11] = experiment: Entry assay; assay type: cell-based, influenza virus
# Rab7 = assay type: cell-based; details: 15 µM, A549 cells, 3 hpi
# LC3B-II and p62 = experiment: Autophagy markers by Western blotting in A549 cells; assay type: cell-based; details: dose- and time-dependent
# A/NY/61/LV16A (H1N1) [12] = experiment: Time of addition assay; assay type: cell-based, influenza virus
# [13] = uninfected mice, 5 mg/kg i.p.
# in vitro [14] = details: dog
# in vitro [15] = details: human
# [16] = Cytotoxicity, CellTiter-Glo cell viability; details: dog, uninfected MDCK cells
# [17] = Influenza A virus, H1N1, MDCK; read-out: EC50 ± SD A/NY/61/LV16A (H1N1)
# [18] = Influenza A virus, H1N1; MDCK cells; read-out: EC90 (approximately)
# [19] = Influenza A virus, H3N2, MDCK; read-out: EC50 ± SD A/17/HK/2014/8296 (H3N2)
# [20] = Influenza A virus, H1N1, MDCK; read-out: EC50 ± SD A/Maonan/SWL1536/2019 (H1N1)
# [21] = Influenza B virus; B/M2; infected MDCK cells, MOI = 0.01, 48 hpi; read-out: EC50 ± SD B/Washington/02/2019
structure (smiles),measurement,setting,value
CC(N)C12CC3CC(CC(C3)C1)C2 (stereo not shown) [1-(1-adamantyl) ethylamine],activity against Corynebacterium diphtheriae,[1],inactive
same,activity against Ebola virus,Ebola virus,inactive
same,activity against HSV-2 infection,HSV-2,inactive
"Cn1cnc(N)c2ncnc1-2 [3-MA, 3-methyladenine]",H1N1 RNA content,A/NY/61/LV16A (H1N1) [2],significantly decreased
"COc1ccc(Br)cc1CNC12CC3CC(CC(C3)C1)C2 [ABMA, 1-adamantyl (5-bromo-2-methoxybenzyl) amine]",EC50,A/NY/61/LV16A (H1N1) [3]; [17],3.25 ± 0.17 µM
same,EC90,A/NY/61/LV16A (H1N1) [3]; [18],~15 µM
same,EC50,A/17/HK/2014/8296 (H3N2); [19],5.58 ± 0.38 µM
same,EC50,[4]; [20],4.57 ± 0.33 µM
same,EC50,B/Washington/02/2019; [21],7.36 ± 0.65 µM
same,EC50,[5],2.83 to 7.36 µM
same,inhibition of H1N1 RNA replication (qRT-PCR),A/NY/61/LV16A (H1N1) [6],81.77%
same,survival rate,A/NY/61/LV16A (H1N1) [7],67%
same,H1N1 virus titers in the lungs compared to placebo,A/NY/61/LV16A (H1N1) [7],lower titers
same,lung histopathology changes (H&E),A/NY/61/LV16A (H1N1) [7],significant reduction
same,lung index compared to placebo,A/NY/61/LV16A (H1N1) [7],significantly reduced
same,lung viral load compared to placebo,A/NY/61/LV16A (H1N1) [7],significantly reduced
same,NP expression levels (Western blot),A/NY/61/LV16A (H1N1) [8],reduced; also recorded: decreased
same,NP fluorescence signal,A/NY/61/LV16A (H1N1) [9],significantly decreased
same,binding of the virus to cells,A/NY/61/LV16A (H1N1) [10],do not affect
same,entry stage of H1N1,A/NY/61/LV16A (H1N1) [11],significantly inhibited
same,Rab7 protein fluorescence,Rab7,largely increased
same,LC3B-II level,LC3B-II and p62,increased
same,p62 level,LC3B-II and p62,increased
same,"H1N1 RNA content, time of addition",A/NY/61/LV16A (H1N1) [12],significantly reduced
same,"changes in animal behavior, lethargy and body weight",[13],No remarkable changes
same,CC50 at 72 h,in vitro [14],72.3 ± 1.09 µM
same,CC50,in vitro [15],83.8 ± 1.92 µM
"NC12CC3CC(CC(C3)C1)C2 [Amantadine, Amantadine hydrochloride]",EC50,A/NY/61/LV16A (H1N1) [3]; [17],9.97 ± 1.34 µM
same,EC50,A/17/HK/2014/8296 (H3N2); [19],8.27 ± 0.66 µM
same,EC50,[4]; [20],20.2 ± 1.36 µM
same,antiviral activity against B/Washington/02/2019 (IBV),B/Washington/02/2019,did not show antiviral activity; also recorded: no significant protection
same,EC50,"B/Washington/02/2019; Influenza B virus, MDCK, read-out: EC50 ± SD B/Washington/02/2019",> 100 µM
same,activity against Corynebacterium diphtheriae,[1],inactive
same,activity against Ebola virus,Ebola virus,inactive
same,activity against HSV-2 infection,HSV-2,inactive
same,CC50,in vitro [14],477 ± 39.5 µM
"CO/C1=C\C(C)=C\[C@@H](C)[C@@H](O)[C@@H](C)C/C(C)=C/C=C/[C@H](OC)[C@@H]([C@@H](C)[C@@H](O)[C@H](C)[C@@]2(O)C[C@@H](O)[C@H](C)[C@@H](C(C)C)O2)OC1=O [Baf A1, Bafilomycin A1, reference compound]",NP expression levels (Western blot),A/NY/61/LV16A (H1N1) [8],decreased
same,H1N1 RNA content,A/NY/61/LV16A (H1N1) [2],significantly decreased
"CCN(CC)CCCC(C)Nc1ccnc2cc(Cl)ccc12 (stereo not shown) [Chloroquine, reference compound]",EC50,A/NY/61/LV16A (H1N1) [3]; [17],17.1 ± 2.27 µM
same,EC50,A/17/HK/2014/8296 (H3N2); [19],12 ± 1.26 µM
"COc1ccc(Br)cc1CNC12CC3CC(C)(CC(C)(C3)C1)C2 [DABMA, 1,3-dimethyl-1-adamantyl (5-bromo-2-methoxybenzyl) amine]",EC50,A/NY/61/LV16A (H1N1) [3]; [17],1.82 ± 0.11 µM
same,EC90,A/NY/61/LV16A (H1N1) [3]; [18],~15 µM
same,EC50,A/17/HK/2014/8296 (H3N2); [19],6.73 ± 0.73 µM
same,EC50,[4]; [20],2.69 ± 0.26 µM
same,EC50,B/Washington/02/2019; [21],6.62 ± 0.46 µM
same,EC50,[5],1.82 to 6.73 µM
same,inhibition of H1N1 RNA replication (qRT-PCR),A/NY/61/LV16A (H1N1) [6],86.51%
same,survival rate,A/NY/61/LV16A (H1N1) [7],67%
same,H1N1 virus titers in the lungs compared to placebo,A/NY/61/LV16A (H1N1) [7],lower titers
same,lung histopathology changes (H&E),A/NY/61/LV16A (H1N1) [7],significant reduction
same,lung index compared to placebo,A/NY/61/LV16A (H1N1) [7],significantly reduced
same,lung viral load compared to placebo,A/NY/61/LV16A (H1N1) [7],significantly reduced
same,NP expression levels (Western blot),A/NY/61/LV16A (H1N1) [8],reduced
same,NP fluorescence signal,A/NY/61/LV16A (H1N1) [9],significantly decreased
same,binding of the virus to cells,A/NY/61/LV16A (H1N1) [10],do not affect
same,entry stage of H1N1,A/NY/61/LV16A (H1N1) [11],significantly inhibited
same,"H1N1 RNA content, time of addition",A/NY/61/LV16A (H1N1) [12],significantly reduced
same,"changes in animal behavior, lethargy and body weight",[13],No remarkable changes
same,CC50 at 72 h,in vitro [14],42.7 ± 1.46 µM
same,CC50,in vitro [15],47.4 ± 1.68 µM
"CCOC(=O)C1=C[C@@H](OC(CC)CC)[C@H](NC(C)=O)[C@@H](N)C1 [Oseltamivir, Oseltamivir phosphate]",EC50,A/NY/61/LV16A (H1N1) [3]; [17],7.97 ± 0.85 µM
same,EC50,A/17/HK/2014/8296 (H3N2); [19],7.3 ± 0.79 µM
same,EC50,[4]; [20],2.95 ± 0.21 µM
same,EC50,"B/Washington/02/2019; Influenza B virus, MDCK; read-out: EC50 ± SD B/Washington/02/2019",8.53 ± 1.64 µM
same,CC50 at 72 h,in vitro [14],1890 ± 71.8 µM
"NC(=O)c1ncn([C@@H]2O[C@H](CO)[C@@H](O)[C@H]2O)n1 [Ribavirin, ribavirin]",EC50,"A/NY/61/LV16A (H1N1) [3]; Influenza A virus, H1N1, MDCK, read-out: EC50 ± SD A/NY/61/LV16A (H1N1)",1.61 ± 0.62 µM
same,EC50,"A/17/HK/2014/8296 (H3N2); Influenza A virus, H3N2, MDCK, read-out: EC50 ± SD A/17/HK/2014/8296 (H3N2)",0.13 ± 0.04 µM
same,EC50,"[4]; Influenza A virus, H1N1, MDCK, read-out: EC50 ± SD A/Maonan/SWL1536/2019 (H1N1)",3.2 ± 0.34 µM
same,EC50,B/Washington/02/2019; [21],3.02 ± 0.39 µM
same,CC50 at 72 h,[16],5480 ± 255 µM
CC12CC3CC(C)(C1)CC(N)(C3)C2 [memantine],activity against Corynebacterium diphtheriae,[1],inactive
same,activity against Ebola virus,Ebola virus,inactive
same,activity against HSV-2 infection,HSV-2,inactive
